Columns and labels:
[1] = Solubility of the compound in glycerol; format: physicochemical
OVCAR-3 [2] = assay: Induction of DNA damage in human OVCAR3 cells assessed as increase in gamma-H2AX levels at 10 uM in presence of topotecan; format: functional
Mus musculus = assay: Toxicity in nude mouse xenografted with human OVCAR3 cells assessed as mortality at 100 to 200 mg/kg, po qd measured on day 5,6,7,20,27 during compound dosing in presence of cisplatin dosed every 7 days for 28 days; format: organism-based; conditions: in vivo
OVCAR-3 [3] = assay: Antitumor activity against human OVCAR3 cells xenografted in athymic nude mouse assessed as tumor growth at 100 to 200 mg/kg, po qd administered for 3 days in presence of 5 mg/kg cisplatin dosed every 7 days for 28 days (reference value: 78.04 mm3/day); format: functional
A549 [4] = assay: Suppression of carboplatin induced Rad51 expression in human A549 cells at 0.71 uM after 24 hrs by probing blot analysis; format: functional; conditions: A549, 24 h
A549 [5] = assay: Suppression of carboplatin induced Rad51 expression in human A549 cells at 3.82 uM after 24 hrs by probing blot analysis; format: functional; conditions: A549, 24 h
[6] = Cmax in female rat at 5 mg/kg, iv at 5 mins; format: ADME, organism-based; parameters: dose 5 mg/kg, route intravenous; conditions: in vivo
[7] = Tmax in male rat at 5 mg/kg, iv; format: ADME, organism-based; conditions: in vivo
[8] = Tmax in rat at 25 mg/kg administered via oral gavage; format: ADME, organism-based; conditions: in vivo
Rattus norvegicus [9] = assay: Acute toxicity in Sprague-Dawley rat assessed as clinical abnormalities at 100 to 2000 mg/kg administered as single dose via oral gavage measured 1 to 72 hrs post dose; format: organism-based; conditions: in vivo
Canis familiaris [10] = assay: Acute toxicity in dog at 30 to 2000 mg/kg, po administered as single dose capsule measured over 24 hrs; format: organism-based, Canis lupus familiaris; conditions: in vivo
Canis familiaris [11] = assay: Acute toxicity in dog assessed as mortality at 30 to 2000 mg/kg, po administered as single dose capsule measured over 24 hrs; format: organism-based, Canis lupus familiaris; conditions: in vivo
Rattus norvegicus [12] = assay: Chronic toxicity in male rat assessed as hunched posture at 20 to 200 mg/kg/day, po administered for 28 days; format: organism-based; conditions: in vivo, 672 h
Rattus norvegicus [13] = assay: Chronic toxicity in female rat assessed as hunched posture at 6 to 100 mg/kg/day, po administered for 28 days; format: organism-based; conditions: in vivo, 672 h
Rattus norvegicus [14] = assay: Chronic toxicity in male rat assessed as soft feces at 20 to 200 mg/kg/day, po administered for 28 days; format: organism-based; conditions: in vivo, 672 h
Rattus norvegicus [15] = assay: Chronic toxicity in female rat assessed as sporadic occurrence of hair loss at 6 to 100 mg/kg/day, po administered for 28 days; format: organism-based; conditions: in vivo, 672 h
Rattus norvegicus [16] = assay: Chronic toxicity in female rat assessed as weight gain at 6 to 100 mg/kg/day, po administered for 28 days measured during compound dosing; format: organism-based; conditions: in vivo, 672 h
Rattus norvegicus [17] = assay: Chronic toxicity in male rat assessed as decrease in food consumption at 200 mg/kg/day, po administered for 28 days; format: organism-based; conditions: in vivo, 672 h
Rattus norvegicus [18] = assay: Chronic toxicity in female rat assessed as decrease in food consumption at 60 to 100 mg/kg/day, po administered for 28 days; format: organism-based; conditions: in vivo, 672 h
Rattus norvegicus [19] = assay: Chronic toxicity in male rat assessed as decrease in food consumption at 200 mg/kg/day, po administered for 28 days measured after cessation of dosing; format: organism-based; conditions: in vivo, 672 h
Rattus norvegicus [20] = assay: Chronic toxicity in male rat assessed as ophthalmologic changes at 200 mg/kg/day, po administered for 28 days; format: organism-based; conditions: in vivo, 672 h
Rattus norvegicus [21] = assay: Chronic toxicity in female rat assessed as hematological changes at 60 to 100 mg/kg/day, po administered for 28 days; format: organism-based; conditions: in vivo, 672 h
Rattus norvegicus [22] = assay: Chronic toxicity in male rat assessed as decrease in glucose levels at 200 mg/kg/day, po administered for 28 days; format: organism-based; conditions: in vivo, 672 h
Rattus norvegicus [23] = assay: Chronic toxicity in male rat assessed as decrease in triglyceride levels at 200 mg/kg/day, po administered for 28 days; format: organism-based; conditions: in vivo, 672 h
Rattus norvegicus [24] = assay: Chronic toxicity in male rat assessed as sporadic alterations in organ weight at 200 mg/kg/day, po administered for 28 days; format: organism-based; conditions: in vivo, 672 h
Rattus norvegicus [25] = assay: Chronic toxicity in female rat assessed as sporadic alterations in organ weight at 60 to 100 mg/kg/day, po administered for 28 days; format: organism-based; conditions: in vivo, 672 h
Rattus norvegicus [26] = assay: Chronic toxicity in male rat assessed as effect on organs at 200 mg/kg/day, po administered for 28 days; format: organism-based; conditions: in vivo, 672 h
Rattus norvegicus [27] = assay: Chronic toxicity in female rat assessed as effect on organs at 60 to 100 mg/kg/day, po administered for 28 days; format: organism-based; conditions: in vivo, 672 h
[28] = Chronic toxicity in po dosed female rat assessed as no observable adverse effect level administered daily for 28 days; format: organism-based; conditions: in vivo
Rattus norvegicus [29] = assay: Chronic toxicity in po dosed male rat assessed as severely toxic dose administered daily for 28 days; format: organism-based; conditions: in vivo, 672 h
Canis familiaris [30] = assay: Chronic toxicity in male dog assessed as increase in soft feces/diarrhea at 100 to 300 mg/kg/day, po administered for 28 days; format: organism-based, Canis lupus familiaris; conditions: in vivo, 672 h
Canis familiaris [31] = assay: Chronic toxicity in male dog assessed as discolored feces at 30 to 300 mg/kg/day, po administered for 28 days; format: organism-based, Canis lupus familiaris; conditions: in vivo, 672 h
Canis familiaris [32] = assay: Chronic toxicity in male dog assessed as mucoid feces at 30 to 300 mg/kg/day, po administered for 28 days; format: organism-based, Canis lupus familiaris; conditions: in vivo, 672 h
Canis familiaris [33] = assay: Chronic toxicity in dog assessed as mortality up to 300 mg/kg/day, po administered for 28 days; format: organism-based, Canis lupus familiaris; conditions: in vivo, 672 h
Canis familiaris [34] = assay: Chronic toxicity in female dog assessed as increase in emesis at 300 mg/kg/day, po administered for 28 days; format: organism-based, Canis lupus familiaris; conditions: in vivo, 672 h
Canis familiaris [35] = assay: Chronic toxicity in female dog assessed as soft feces/diarrhea at 100 to 300 mg/kg/day, po administered for 28 days; format: organism-based, Canis lupus familiaris; conditions: in vivo, 672 h
Canis familiaris [36] = assay: Chronic toxicity in dog assessed as effect on food consumption up to 300 mg/kg/day, po administered for 28 days measured during compound dosing; format: organism-based, Canis lupus familiaris; conditions: in vivo, 672 h
Canis familiaris [37] = assay: Chronic toxicity in dog assessed as ophthalmic lesions up to 300 mg/kg/day, po administered for 28 days; format: organism-based, Canis lupus familiaris; conditions: in vivo, 672 h
Canis familiaris [38] = assay: Chronic toxicity in dog assessed as electrocardiogram changes up to 300 mg/kg/day, po administered for 28 days; format: organism-based, Canis lupus familiaris; conditions: in vivo, 672 h
Canis familiaris [39] = assay: Chronic toxicity in dog assessed as hematological changes up to 300 mg/kg/day, po administered for 28 days measured during compound dosing; format: organism-based, Canis lupus familiaris; conditions: in vivo, 672 h
Canis familiaris [40] = assay: Chronic toxicity in dog assessed as urinalysis parameters up to 300 mg/kg/day, po administered for 28 days measured during compound dosing; format: organism-based, Canis lupus familiaris; conditions: in vivo, 672 h
Canis familiaris [41] = assay: Chronic toxicity in dog assessed as effect on serum troponin 1 levels up to 300 mg/kg/day, po administered for 28 days measured during compound dosing; format: organism-based, Canis lupus familiaris; conditions: in vivo, 672 h
Canis familiaris [42] = assay: Chronic toxicity in dog assessed as histopathological alterations in cardiac tissues up to 300 mg/kg/day, po administered for 28 days; format: organism-based, Canis lupus familiaris; conditions: in vivo, 672 h

Cl.S=C(NCc1ccc2c(c1)OCO2)N1CCN(c2ncnc3c2oc2ccccc23)CC1 [AMUVATINIB HYDROCHLORIDE]
solubility [1]: 4000 µg/mL
Activity (OVCAR-3 [2]): 113%
Activity (Mus musculus): Toxic
Activity (OVCAR-3 [3]): 10.22 mm3/day
inhibition at 0.71 µM (A549 [4]): 26%
inhibition at 3.82 µM (A549 [5]): 42%
Cmax [6]: 371 ng/mL
Tmax [7]: 5 min
Tmax [8]: 30 to 720 min
Activity (Rattus norvegicus [9]): Non-Toxic
Activity (Canis familiaris [10]): Non-Toxic
Activity (Canis familiaris [11]): Non-Toxic
Activity (Rattus norvegicus [12]): Toxic
Activity (Rattus norvegicus [13]): Toxic
Activity (Rattus norvegicus [14]): Toxic
Activity (Rattus norvegicus [15]): Toxic
Activity (Rattus norvegicus [16]): Toxic
Activity (Rattus norvegicus [17]): Toxic
Activity (Rattus norvegicus [18]): Toxic
Activity (Rattus norvegicus [19]): Non-Toxic
Activity (Rattus norvegicus [20]): Non-Toxic
Activity (Rattus norvegicus [21]): Non-Toxic
Activity (Rattus norvegicus [22]): Toxic
Activity (Rattus norvegicus [23]): Toxic
Activity (Rattus norvegicus [24]): Toxic
Activity (Rattus norvegicus [25]): Toxic
Activity (Rattus norvegicus [26]): Non-Toxic
Activity (Rattus norvegicus [27]): Non-Toxic
NOAEL at 672 h [28]: 20 mg/kg/day
Activity (Rattus norvegicus [29]): 200 mg/kg/day
Activity (Canis familiaris [30]): Toxic
Activity (Canis familiaris [31]): Toxic
Activity (Canis familiaris [32]): Toxic
Activity (Canis familiaris [33]): Non-Toxic
Activity (Canis familiaris [34]): Toxic
Activity (Canis familiaris [35]): Toxic
Activity (Canis familiaris [36]): Non-Toxic
Activity (Canis familiaris [37]): Non-Toxic
Activity (Canis familiaris [38]): Non-Toxic
Activity (Canis familiaris [39]): Non-Toxic
Activity (Canis familiaris [40]): Non-Toxic
Activity (Canis familiaris [41]): Non-Toxic
Activity (Canis familiaris [42]): Non-Toxic
